According to patent US9540647B2, “Methods and compositions for the treatment of cancer” (University of South Alabama, priority 2010, dated 2017):
“Also recorded” adds a separate entry of the source.

Tests used:
OPN mRNA = test: OPN transcript levels by real-time RT-PCR in metastatic melanoma cell lines; format: cell-based, human; settings: for levels of OPN mRNA: cyclopamine 24 h, qRT-PCR
Description: This medium was replaced with fresh cyclopamine-containing medium after 12 h. […] RNA was assessed by real-time RT-PCR for OPN transcript levels.
Stable vector only and non-targeting (scrambled control) transfectants were also generated. Stable transfectants were selected on medium supplemented with 500 μg/ml Geneticin (Invitrogen). The four GLI1-knocked down clones chosen were based on the extent of GLI1 knockdown and were termed KO1, KO2, KO3, and KO4. The expression of OPN was restored in the KO1 cells by transfecting with pcDNA3.1-OPN. A corresponding vector-only transfectant was also generated. Transfectants were selected on medium containing Geneticin (500 μg/ml) and hygromycin (750 μg/ml). Serum-free conditioned medium harvested from approximately 3.0×10^6 cells after 24 hr was assayed for OPN by immunoblotting.
Quantitative RT-PCR (qRT-PCR)—cDNA was generated using High Capacity Reverse Transcriptase Kit (Applied Biosystems, Foster City, Calif.). Real time PCR was performed using a Bio-Rad iQ5 Real-Time Detection system (Bio-Rad). All reactions were done as three independent replicates. All assays were done using the TaqMan Gene Expression Assays from Applied Biosystems. OPN (SPP1: Hs 00959010_m1) transcript levels were normalized to glyceraldehyde-3-phosphate dehydrogenase (Hs 99999905_m1) levels (δCT), which was used to calculate changes in OPN expression (2^−δδCT). […] GLI1 and SHH (Hs 00179843_m1) expressions were also similarly assessed with glyceraldehyde-3-phosphate dehydrogenase as an endogenous control. To analyze the knockdown effectiveness, “scrambled transfectants” of MDA-MB-435 was set as calibrator.

RAW264.7 cells [1] = test: Osteoclast differentiation (TRAP assay); format: cell-based, murine
Description: Cell lines—Human metastatic breast cancer cells, MDA-MB-231, were cultured in Dulbecco's Modified Eagle's Medium (DMEM/F12; Invitrogen, Carlsbad, Calif.), supplemented with 2 mM L-glutamine, 1 mM sodium pyruvate, 0.02 mM non-essential amino acids, 5% fetal bovine serum, FBS (Atlanta Biologicals, Norcross, Ga.), without antibiotics or antimycotics (cDME/F12). SUM1315 and SUM159 cells (DiMeo, T. A., et al. (2009) Cancer Res 69, 5364-5373) (Asterand, Detroit, Mich.) were cultured in DMEM/F12 supplemented with […], 5% FBS (Atlanta Biologicals) and either 10 ng/ml EGF or 1 ng/ml hydrocortisone, without antibiotics or antimycotics. The SUM1315 cells are derived from a metastasis in a patient with infiltrating ductal carcinoma; SUM159 cells were derived from a primary breast tumor with metaplastic carcinoma. RAW264.7 (ATCC, TIB 71) cells, a murine pre-osteoclastic line capable of differentiation and […] in culture (in presence of RANKL and MCSF), were grown in DMEM with L-glutamine (ATCC, 30-2002) supplemented with 10% FBS. A 2× differentiation medium (DM) was formulated for the RAW 264.7 cells comprising RAW264.7 growth medium supplemented with 20% FBS, RANKL (100 ng/ml) and M-CSF (40 ng/ml) (Matsubara, T., et al. J Bone Miner Res 25, 1068-1076). Conditioned media was harvested from breast cancer cells and mixed in a 1:1 ratio with double strength differentiation medium to assess the effect on osteoclast differentiation. 1×DM was used as control or wherever SHH (R & D Systems, Minneapolis, Minn.) or OPN (R & D Systems) was used alone. The medium on the RAW264.7 cells was replenished every 48 hours. In order to assess the effect of secreted Hh ligands, the neutralizing 5E1 antibody was used (Developmental Studies Hybridoma Bank, at the University of Iowa, Iowa). […] Medium was supplemented with 5E1 (2.5 μg/ml) and was changed on alternate days until the end of the experiment. The effect of OPN on osteoclast activity was assessed by transfecting an OPN shRNA-expressing construct on day 6 post-induction of differentiation. Fresh DM was added the following day and cells were allowed to grow for another 12 hours before termination of experiment. GLI1 expression was silenced in the SUM1315 cells using shRNA targeting GLI1 into pSuperior. gfp+neo (Oligoengine, WA, USA). Silencing of OPN expression was done using OPN-targeting shRNA cloned into pSuper (Oligoengine)
Osteoclast differentiation and activity assays—Tartarate-resistant acid phosphatase (TRAP) assay was conducted for RAW 264.7 following the manufacturer's protocol (Sigma, St. Louis, Mo.). This assay was indicative of the extent of differentiation. […] The percentage of area resorbed was calculated using the NIS-Elements BR. […]

RAW264.7 cells [2] = test: Osteoclast resorption activity (OAAS plates); format: cell-based, murine
Description: Osteoclast differentiation and activity assays—Tartarate-resistant acid phosphatase (TRAP) assay was conducted for RAW 264.7 following the manufacturer's protocol (Sigma, St. Louis, Mo.). This assay was indicative of the extent of differentiation. OAAS plates (Osteogenic Core Technologies, Choongnam, Republic of Korea) were utilized to measure osteoclastic activity. RAW 264.7 cells (25×103) were inoculated in 48-well plates. Cells were treated with serum-free conditioned media from breast cancer cells or 100 nM SHH or 100 ng/ml OPN on the following day. Media was changed every two days and the experiments were terminated either on day 6 (day 7 for knockdown experiments, with transfections being done on the sixth day). At the completion, cells were detached with 5% sodium hypochlorite and the wells were observed under a Nikon Eclipse TS 100 microscope at 10× magnification. […] The percentage of area resorbed was calculated using the NIS-Elements BR. 3.1 software.

[3] = tested on: OPN, MMP9, and Cathepsin K (CTSK); test: OPN, MMP9 and Cathepsin K expression in osteoclasts (qRT-PCR); format: cell-based, murine; settings: osteoclasts with breast cancer conditioned medium; relative to DM
Description: Quantitative RT-PCR (qRT-PCR)—cDNA was generated using High Capacity Reverse Transcriptase Kit (Applied Biosystems, Foster City, Calif.). Real time PCR was performed in two cycles using a BioRad iQ5 Real-Time Detection system (Bio-Rad, Hercules, Calif.): the first cycle of 95° C. for 10 mins followed by 40 repeats of the second cycle comprising 95° C. for 15 sec followed by 60° C. for 1 min. All reactions were done in triplicate. Transcript levels were normalized to GAPDH levels (dCT) which was used to calculate changes in gene expression (2-ddCT). […] Following the experimental regime as described herein (for Osteoclast differentiation/activity) RNA was isolated using Trizol (Invitrogen) and assessed as described herein. The details of the primers used were as follows: OPN (Spp1; Mm00436767_m1), Matrixmetalloprotease 9 (MMP9; Mm00600163_m1), Cathepsin K (Ctsk; Mm00484036_m1), SHH (Hs00179843_m1), GLI1 (Hs01110766_m1), OPN (Hs00959010_m1), hGAPDH (Hs99999905_m1) and GAPDH (Mm99999915_g1).

Compound	levels of OPN mRNA (OPN mRNA; MCC012A cells)	levels of OPN mRNA (OPN mRNA; MCC012F cells)	levels of OPN mRNA (OPN mRNA; MDA-MB-435 cells)	ability of tumor cells to induce osteoclast differentiation (RAW264.7 cells [1]; conditioned medium from MDA-MB-435 cells treated with cyclopamine)	ability of osteoclasts to differentiate (RAW264.7 cells [1]; cyclopamine (20 μM), DM and breast cancer cell-conditioned medium)	ability of osteoclasts to resorb matrix (RAW264.7 cells [2]; cyclopamine (20 μM), stimulated with breast cancer conditioned medium)	levels of CTSK [3]	levels of MMP9 [3]	levels of OPN [3]	OPN transcript levels, rescue of cyclopamine inhibition (OPN mRNA; MDA-MB-435 cells, cyclopamine 20 μM, after 12 hr medium with recombinant SHH (100 nM))	numbers of multinucleate TRAP-positive cells (RAW264.7 cells [1]; DM supplemented with OPN (100 ng/ml) or SHH (100 nM) vs DM)	resorption activity of differentiated osteoclasts (RAW264.7 cells [2]; DM with OPN (100 ng/ml) or SHH (100 nM))
CC1=C2C[C@H]3[C@@H](CC=C4C[C@@H](O)CC[C@@]43C)[C@@H]2CC[C@]12O[C@@H]1C[C@H](C)CN[C@H]1[C@H]2C [cyclopamine]	decreases the levels of OPN mRNA	decreases the levels of OPN mRNA	decreases the levels of OPN mRNA in a dose-dependent manner	significant reduction	significantly (*p<0.0001) compromises their ability to differentiate	significantly (*p<0.0001) compromises their ability to resorb matrix	significantly decreased	significantly decreased	significantly decreased	–	–	–
SHH: recombinant Sonic Hedgehog ligand (R & D Systems)	–	–	–	–	–	–	–	–	–	able to rescue the inhibitory effects of cyclopamine	potentiates differentiation; also recorded: stimulate osteoclast differentiation; also recorded: significantly (* indicates p<0.005) increases	significantly (* indicates p<0.001) increases the resorption activity
